Drawing on patent publication US20210253598A1, “ARYL ANNULATED MACROCYCLIC INDOLE DERIVATIVES” (priority 2017, published 2021), this text covers IC50 and EC50 for eight compounds.

Structures are written as SMILES. Structures can show the parent of a compound that is named as a salt. Where two headings read alike, the source gives them in different places.

Series [1] concerns SUDHL5. Put plainly: Anti-proliferative effect in SUDHL5 cells, CellTiter-Glo (Assay 7). It is filed as cell-based. Conditions: SUDHL5, 72 hours incubation, CellTiter-Glo, median, read-out: Antiproli SUDHL5 [M] (median). On the procedure: Assessment of the Anti-Proliferative Effect of Compounds in Different Cell Lines
The impact of compounds on the proliferation of different cell lines was assessed using the CellTiter-Glo® Luminescent Cell Viability reagent from Promega (G7573).
In parallel, cells were plated in a reference (day 0) plate for time zero determination. Cells were incubated in a humidified incubator at 37° C. overnight.
Rim wells were excluded. The cells were incubated for 72 hours in a humidified incubator at 37° C. The day 0 plate was measured by adding 30 μL/well of CTG solution (CellTiter-Glo® Luminescent Cell Viability reagent, Promega G7573) to time zero wells in the reference plate followed by a 10 minutes incubation and luminescence reading at 0.1 ms. using the PHERAstar FS microplate reader (BMG Labtech).
After 72 hours incubation, the treated plates were measured in the same way as the day 0 plate mentioned above. The Bella DRC Master Sheet was used to calculate IC50s, with CI=day 0 values and C0=DMSO control values.
A general note: In ATP-based viability assays light output follows the ATP content of the culture.

The subject of series [2] is SUDHL5. Put plainly: Induction of caspase-3/7 activity in SUDHL5 cells (Assay 4). It counts as cell-based. Conditions: SUDHL5, 3 hours treatment, Caspase-Glo 3/7, median, read-out: Caspase SUDHL5 [M] (median). On the procedure:
(§1) Induction of Caspase-3/7 Activity Upon Treatment of Cells with Selected Compounds
(§2) The BH3-domain of MCL-1 sequesters pro-apoptotic proteins, thereby inhibiting apoptosis. In contrast, MCL-1 inhibitors are expected to antagonize this effect leading to an increase in apoptosis, which can be determined by measuring the activity of caspase-3/7.
(§3) The activity of caspase-3/7 was determined in DLBCL (Diffuse large B-cell lymphoma) cell lines (SUDHL5 and SUDHL10) upon treatment with different compounds, using the Caspase-Glo® 3/7 reagent from Promega (G8092).
(§4) As a control, medium without cells was also added to the plate. Cells were incubated in a humidified incubator at 37° C. overnight.
(§5) Rim wells were excluded. The cells were incubated for 3 hours in a humidified incubator at 37° C. After this incubation, 30 μl of Caspase-Glo® 3/7 reagent (Promega G8092) was added to each well using the Multidrop Combi Reagent Dispenser, followed by 1 hour incubation at 37° C. Finally, luminescence was read at 0.1 ms, with a gain of 3000 using the PHERAstar FS microplate reader (BMG Labtech).
(§6) For the evaluation of the results, the background measured with “medium-only” was subtracted from all other values. Then, the values were normalized to DMSO-only treated cells (every value was divided by the mean of the DMSO control).

In series [3] the test system is SUDHL10. Put plainly: Induction of cytotoxicity in SUDHL10 cells, CellTiter-Glo (Assay 6). Conditions: SUDHL10, 5 hours incubation, median, read-out: Cytotox SUDHL10 [M] (median). It counts as cell-based. On the procedure:
(§7) Induction of Cytotoxicity Upon Treatment of Cells with Selected Compounds
(§8) In principle, compounds that induce apoptosis will concomitantly induce cell cytotoxicity. Therefore, cytotoxicity assays were run in parallel in SUDHL5 and SUDHL10 cells.
(§9) As a control, medium without cells was also added to the plate. Cells were incubated in a humidified incubator at 37° C. overnight. […] Rim wells were excluded. The cells were incubated for 5 hours in a humidified incubator at 37° C. After this incubation, 30 μl of CellTiter-Glo® Luminescent Cell Viability reagent (Promega, G7573) was added to each well using the Multidrop Combi Reagent Dispenser, followed by 15 minutes incubation on a shaker at room temperature. Finally, luminescence was read at 0.1 ms, with a gain of 3000 using the PHERAstar FS microplate reader (BMG Labtech).

The test system of series [4] is SUDHL10. The experiment in a line: Induction of caspase-3/7 activity in SUDHL10 cells (Assay 4). It is filed as cell-based. The settings on record: SUDHL10, 3 hours treatment, Caspase-Glo 3/7, median, read-out: Caspase SUDHL10 [M] (median). On the procedure: as §1, §2, §3, §4, §5, §6
Series [5] deals with SUDHL5. The experiment in a line: Induction of cytotoxicity in SUDHL5 cells, CellTiter-Glo (Assay 6). It is filed as cell-based. Conditions: SUDHL5, 5 hours incubation, median, read-out: Cytotox SUDHL5 [M] (median). On the procedure:
as §7, §8, §9

The target in another series is MCL-1 (Homo sapiens, UniProt Q07820, K194A/K197A/R201A). Put plainly: Protein-protein interaction assay MCL-1/Noxa BH3 peptide, TR-FRET (MCL-1 assay, Assay 1). It counts as binding. The settings on record: MCL-1 Assay [M] (median), MBP-MCL-1 / Noxa BH3 peptide. On the procedure:
The dose-dependent inhibition by the compounds described in this invention of the interaction between MCL-1 and the BH3 domain of Noxa (both human) was determined using a steady state binding competition assay with time-resolved fluorescence energy transfer (TR-FRET) readout. For that purpose MCL-1 (amino acids 173-321, N-terminal fused to Maltose Binding Protein (MBP), SEQ ID 1) and a synthetic Noxa BH3-derived peptide of sequence Biotin-PEG2-PEG2-PAELEVE-Nva-[…]-amide (SEQ ID 2) served as protein receptor and tracer ligand respectively. The MBP-MCL-1 was purchased from Beryllium (Bedford, Mass., USA). The expression and purification of this protein construct has been described elsewhere (DOI:10.1371/journal.pone.0125010). The Noxa BH3-derived peptide can be obtained from e.g. Biosyntan (Berlin, Germany).
For that, 100-fold concentrated DMSO solutions were prepared by serial dilutions (1:3.4) of a 2 mM stock solution in a clear, 384-well microtiter plate (Greiner Bio-One, Frickenhausen, Germany). From there, 50 nl were transferred in a dark test plate (Greiner Bio-One, Frickenhausen, Germany). The assay was initiated by addition of 2 μl of a 2,5-fold concentrated MBP-MCL-1 solution (usually for a 1 nM end concentration in 5 μl reaction volume) in aqueous assay buffer [50 mM Tris/HCl pH 7, 100 mM sodium chloride (NaCl), 50 mM potassium fluoride (KF), 0.005% Tween-20, 2 mM DTT, 0.1% bovine gamma globulin (BGG)] to the compounds in the assay plate. This was followed by a 10-minute incubation step at 22° C. for pre-equilibration of the putative complex between MBP-MCL-1 and the compounds.
The mixture was incubated in the dark for one hour at 22° C. and then overnight at 4° C. The formation of MCL-1/Noxa complexes was determined by measuring the resonance energy transfer of the anti-MBP-Eu-cryptate antibody to the streptavidin-XL665 present in the reaction.
The resulting data (ratio) were normalized, taking 0% inhibition as the mean value of control measurements (usually 32 data points) where all reagents were included. In this case 50 nl DMSO were used instead of compounds. […] IC50 values were determined by regression analysis based on a 4 parameter equation (minimum, maximum, IC50, Hill; Y=Max+(Min−Max)/(1+(X/IC50)^Hill) using the Screener Software (Genedata).
On the technique in general: In TR-FRET formats the signal depends on donor and acceptor labels being close together.

MCL-1, sequence (Q07820 173-321 K194A/K197A/R201A, looked up): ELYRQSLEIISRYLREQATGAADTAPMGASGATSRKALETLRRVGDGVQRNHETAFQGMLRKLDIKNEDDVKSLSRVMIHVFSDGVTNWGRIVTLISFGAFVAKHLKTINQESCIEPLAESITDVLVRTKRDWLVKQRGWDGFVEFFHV

As to `Cc1c2c(nn1C)COCc1ccccc1Cn1c(C(=O)O)c(CCCOc3cccc4ccccc34)c3cccc-2c31` (racemic) [Example 1, (rac)-4,5-Dimethyl-17-[3-(naphthalen-1-yloxy)propyl]-5,7,9,14-tetrahydroindolo[7,1-fg]pyrazolo[3,4-d][2,8]benzoxazacycloundecine-16-carboxylic Acid], the IC50 with SUDHL5 [1] (Homo sapiens, SU-DHL-5, 72 h) was 9e-06 M; with SUDHL10 [3] (Homo sapiens, SU-DHL10, 5 h) it was above 1.6e-05 M; with SUDHL5 [5] (Homo sapiens, SU-DHL-5, 5 h), 1.1e-05 M; against MCL-1, 1.4e-08 M. Besides, the EC50 in the series with SUDHL5 [2] (Homo sapiens, SU-DHL-5, 3 h) was 1e-05 M; with SUDHL10 [4] (Homo sapiens, SU-DHL10, 3 h), above 3.3e-05 M.
On to `Cc1c2c(nn1C)COCc1cccnc1Cn1c(C(=O)O)c(CCCOc3cccc4ccccc34)c3cccc-2c31` (racemic) [Example 4, (rac)-4,5-Dimethyl-17-[3-(naphthalen-1-yloxy)propyl]-5,7,9,14-tetrahydropyrazolo-[4′,3′:9,10]pyrido[3′,2′:3,4][1,6]oxazacycloundecino[8,7,6-hi]indole-16-carboxylic Acid], for which the IC50 with SUDHL5 [1] (Homo sapiens, SU-DHL-5, 72 h) is 1.4e-05 M; in the series on SUDHL10 [3] (Homo sapiens, SU-DHL10, 5 h), above 2.3e-05 M; in the series with SUDHL5 [5] (Homo sapiens, SU-DHL-5, 5 h), 1.2e-05 M; on MCL-1, 5.3e-09 M. For the same compound, the EC50 with SUDHL5 [2] (Homo sapiens, SU-DHL-5, 3 h) was 1.5e-05 M; in the series on SUDHL10 [4] (Homo sapiens, SU-DHL10, 3 h), above 3.2e-05 M.
On to `Cc1c2c(nn1C)COCc1ncccc1Cn1c(C(=O)O)c(CCCOc3cccc4ccccc34)c3cccc-2c31` (racemic) [Example 7, (rac)-4,5-Dimethyl-17-[3-(naphthalen-1-yloxy)propyl]-5,7,9,14-tetrahydropyrazolo[4′,3′:9,10]-pyrido[2′,3′:3,4][1,6]oxazacycloundecino[8,7,6-hi]indole-16-carboxylic Acid], for which the IC50 in the series on SUDHL5 [1] (Homo sapiens, SU-DHL-5, 72 h) is 4.6e-06 M; with SUDHL10 [3] (Homo sapiens, SU-DHL10, 5 h), 1.5e-05 M; in the series on SUDHL5 [5] (Homo sapiens, SU-DHL-5, 5 h) it was 3.6e-06 M. For the same compound, the EC50 came to 3e-06 M with SUDHL5 [2] (Homo sapiens, SU-DHL-5, 3 h) and 1.6e-05 M in the series on SUDHL10 [4] (Homo sapiens, SU-DHL10, 3 h).
As to `Cc1c2c(nn1C)COCc1cccnc1Cn1c(C(=O)O)c(CCCOc3cccc4ccccc34)c3cccc-2c31` (single isomer, unassigned; enantiomer 1) [Example 5, 4,5-Dimethyl-17-[3-(naphthalen-1-yloxy)propyl]-5,7,9,14-tetrahydropyrazolo[4′,3′:9,10]-pyrido[3′,2′:3,4][1,6]oxazacycloundecino[8,7,6-hi]indole-16-carboxylic Acid (Enantiomer 1)], the IC50 in the series on SUDHL5 [1] stood at 5.2e-06 M; in the series on SUDHL10 [3] it was 1.3e-05 M; in the series with SUDHL5 [5] it was 4.6e-06 M; on MCL-1, 2.9e-09 M. The EC50 in the series on SUDHL5 [2] stood at 5.4e-06 M; with SUDHL10 [4], 1.4e-05 M.
On to `Cc1c2c(nn1C)COCc1cccnc1Cn1c(C(=O)O)c(CCCOc3cccc4ccccc34)c3cccc-2c31` (single isomer, unassigned; enantiomer 2) [Example 6, 4,5-Dimethyl-17-[3-(naphthalen-1-yloxy)propyl]-5,7,9,14-tetrahydropyrazolo[4′,3′:9,10]-pyrido[3′,2′:3,4][1,6]oxazacycloundecino[8,7,6-hi]indole-16-carboxylic Acid (Enantiomer 2)], for which the IC50 with SUDHL5 [1] is 1.2e-05 M; in the series with SUDHL10 [3], above 3.3e-05 M; with SUDHL5 [5] it was above 1.9e-05 M; against MCL-1 it was 1.1e-08 M. Moreover, the EC50 in the series on SUDHL5 [2] was above 2.2e-05 M; in the series on SUDHL10 [4], above 3.3e-05 M.
For the compound `Cc1c2c(nn1C)COCc1ncccc1Cn1c(C(=O)O)c(CCCOc3cccc4ccccc34)c3cccc-2c31` (single isomer, unassigned; enantiomer 2) [Example 9, 4,5-Dimethyl-17-[3-(naphthalen-1-yloxy)propyl]-5,7,9,14-tetrahydropyrazolo[4′,3′:9,10]-pyrido[2′,3′:3,4][1,6]oxazacycloundecino[8,7,6-hi]indole-16-carboxylic acid-N-ethylethanamine Salt (Enantiomer 2)], the IC50 was 2e-05 M in the series on SUDHL5 [1], above 3.3e-05 M in the series with SUDHL10 [3], above 3.3e-05 M in the series with SUDHL5 [5] and 3.2e-08 M against MCL-1. Further, the EC50 in the series with SUDHL5 [2] and with SUDHL10 [4] was above 3.3e-05 M throughout.
Turning to `Cc1c2c(nn1C)CN(C(=O)NCC1CCOCC1)Cc1ccccc1Cn1c(C(=O)O)c(CCCOc3cccc4ccccc34)c3cccc-2c31` (single isomer, unassigned; enantiomer 2) [Example 29, (−)-4,5-Dimethyl-17-[3-(naphthalen-1-yloxy)propyl]-8-[(tetrahydro-2H-pyran-4-ylmethyl)carbamoyl]-7,8,9,14-tetrahydro-5H-indolo[1,7-bc]pyrazolo[4,3-e][2,8]benzodiazacycloundecine-16-carboxylic Acid (Enantiomer 2)], the values for the EC50 in the series with SUDHL5 [2] and in the series with SUDHL10 [4] were 1e-05 M and 2.3e-05 M, respectively. For the same compound, the IC50 in the series on SUDHL10 [3] was determined as 2.3e-05 M; in the series with SUDHL5 [5], 1.4e-05 M; against MCL-1, 3e-08 M.
As to `Cc1c2c(nn1C)COCc1ccccc1Cn1c(C(=O)O)c(CCCOc3cccc4ccccc34)c3ccc(Cl)c-2c31` (single isomer, unassigned; enantiomer 2) [Example 38, (+)-3-Chloro-4,5-dimethyl-17-[3-(naphthalen-1-yloxy)propyl]-5,7,9,14-tetrahydroindolo[7,1-fg]pyrazolo[3,4-d][2,8]benzoxazacycloundecine-16-carboxylic Acid (Enantiomer 2)], the EC50 with SUDHL5 [2] was found to be 1.7e-06 M; in the series on SUDHL10 [4], 1.1e-05 M. Also, the IC50 worked out at 6.8e-06 M in the series on SUDHL10 [3], 2.3e-06 M in the series with SUDHL5 [5] and 7.1e-09 M at MCL-1.
